Read-outs that look alike come from different tables or passages of the source.
What was measured:
[1] = test system: PfNF54-s16-GFP early (I–III) stage gametocytes; assay: Image-based gametocyte viability assay; format: cell-based, P. falciparum; conditions: Plasmodium falciparum, 72 h, read-out: IC50 Early-stage Gametocytes (mean ± SD)
Description: (§1) Viability assays were performed as described previously ([32], [33]) against PfNF54-s16-GFP early(I–III), late (IV–V), and mature (V) stage gametocytes. Gametocytes were assessed at the appropriate time points following gametogenesis; early stage (day 2), late stage (day 8), and mature stage (day 12). Compounds diluted in 4% DMSO were transferred into 384-well imaging plates; gametocytes prepared as described previously (35) were added, and plates were incubated for 72 h in 5% CO2, 5% O2, and 60% humidity at 37°C. After 72 h incubation, 5 µL of MitoTracker Red CMH2XRos in phosphate buffered saline (PBS) was added per well, and plates were incubated overnight. Image acquisition and analysis were undertaken on the Opera QEHS micro-plate confocal imaging system. An Acapella-based script using the CMH2XRos fluorescent signal and the GFP-designated object quantifying viable stage-dependent parasite morphology identified gametocytes. Gametocyte viability was calculated as a percentage of the positive (5 µM puromycin) and negative (0.4% DMSO) controls. IC50 values were calculated using a 4-parameter log dose, non-linear regression analysis, with sigmoidal dose response (variable slope) curve fit using GraphPad Prism (ver 4.0). No constraints were used in the curve fit. Chloroquine, artesunate, pyronaridine, pyrimethamine, dihydroartemisinin (DHA), and methylene blue were used as control compounds. Experiments were performed as two or three biological replicates in duplicate.

[2] = test system: PfNF54-s16-GFP late (IV–V) stage gametocytes; assay: Image-based gametocyte viability assay; format: cell-based, P. falciparum; conditions: Plasmodium falciparum; stages IV–V, 72 h; read-out: IC50 Late-stage Gametocytes (mean ± SD)
Description: as §1, with “Chloroquine, artesunate, pyronaridine, pyrimethamine, dihydroartemisinin (DHA), and methylene blue were used as control compounds.” left out

[3] = test system: PfNF54-s16-GFP mature (V) stage gametocytes; assay: Image-based gametocyte viability assay; format: cell-based, P. falciparum; conditions: Plasmodium falciparum, 72 h, read-out: IC50 Mature-stage Gametocytes (mean ± SD)
Description: as §1, with “Chloroquine, artesunate, pyronaridine, pyrimethamine, dihydroartemisinin (DHA), and methylene blue were used as control compounds.” left out

[4] = test system: P. falciparum Dd2 parasites; assay: Fractional inhibitory concentration, artemisinin and MMV1557817 interaction; format: cell-based
Description: Fractional inhibitory concentrations (FIC) were determined as previously described ([44]). […] The FIC for each drug was determined by EC50 of drug in a mixture/EC50 of drug alone, and the sum of FIC was determined by the addition of the two individual FIC values. Synergistic FIC is described as <1, additive = 1 < 2, and antagonism > 2 ([44]).

[5] = test system: MMV1557817-resistant parasites; assay: 72 h killing assay, MMV1557817-resistant parasites versus parental Dd2; format: cell-based, P. falciparum
Pf3D7 = assay: Parasite reduction ratio assay; format: cell-based, P. falciparum
Description: Assays were performed as described previously with some alterations ([37]). […] Specifically, media containing compound was placed in wells every 24 h for up 120 h. […] Parasite growth was measured at day 21 using SYBR green I as described above. Fluorescence was used to determine at what treatment day wells became positive for growth when compared with the well before it; greater than double the fluorescence was determined to be a positive well. […] Experiments were performed in two or three biological replicates in quadruplicate.

[6] = test system: P. falciparum clinical isolates; assay: Ex vivo drug susceptibility assay (schizont maturation) on clinical isolates; format: cell-based
Description: (§2) Plasmodium isolates were collected from patients attending public health clinics in Timika (Papua, Indonesia), a region endemic for multidrug-resistant strains of P. vivax and P. falciparum ([38][–][40]). Patients with symptomatic malaria presenting to an outpatient facility were recruited into the study if infected with either P. falciparum or P. vivax, with a parasitemia of between 2,000 µL^−1 and 80,000 µL^−1, and the majority (>60%) of asexual parasites at the ring stage of development. Venous blood (5 mL) was collected by venipuncture, and after removal of patient white blood cells using Plasmodipur filters (EuroProxima B.V., The Netherlands), packed infected red blood cells (iRBCs) were used for the ex vivo drug susceptibility assay.
(§3) Drug plates were pre-dosed by diluting the compounds in 50% methanol followed by lyophilization and storage at 4°C. Drug susceptibility of P. vivax and P. falciparum isolates was measured using a protocol modified from the WHO microtest as described previously ([40], [41]). […] A candle jar was used to mature the parasites at 37.0°C for 35–56 h. […] Thick blood films made from each well were stained with 5% Giemsa solution for 30 min and examined microscopically. The number of schizonts per 200 asexual-stage parasites was determined for each drug concentration and normalized to the control well without drug. The dose response data were analyzed using non-linear regression analysis, and the EC50 value was derived using an inhibitory sigmoid Emax model (In Vitro Analysis and Reporting Tool [IVART] [42, 43]).

[7] = test system: P. vivax clinical isolates; assay: as above; format: cell-based
Description: as §2, §3

[8] = Plasmodium falciparum, ex vivo clinical isolates, n = 15, read-out: P. falciparum median EC50 (range)
[9] = Plasmodium vivax, ex vivo clinical isolates, n = 6, read-out: P. vivax median EC50 (range)
[10] = ex vivo clinical isolates, n = 6, read-out: P. vivax median EC50 (range)

**Q.** Which IC50 ([1]; stages I–III) does the source give for `C[C@H]1[C@@H](O)O[C@@H]2O[C@@]3(C)CC[C@H]4[C@H](C)CC[C@@H]1[C@@]24OO3` [DHA, dihydroartemisinin] here?
**A.** 16 ± 2 nM

**Q.** And the IC50 [2]?
**A.** 35 ± 12 nM

**Q.** What about the IC50 [3] of the same compound?
**A.** 103 ± 30 nM

**Q.** Which IC50 ([1]; stages I–III) does the source give for `CN(C)c1ccc2nc3ccc(=[N+](C)C)cc-3sc2c1` [Methylene Blue, methylene blue] here?
**A.** 110 ± 4 nM

**Q.** What about the IC50 [2] of the same compound?
**A.** 52 ± 2 nM

**Q.** And the IC50 [3]?
**A.** 63 ± 26 nM

**Q.** Which results are given for `C[C@@H]1CC[C@H]2[C@@H](C)C(=O)O[C@@H]3O[C@@]4(C)CC[C@@H]1[C@]32OO4` [artemisinin, reference compound]?
**A.** artemisinin mean FIC ± SEM ([4]; ratio MMV1557817:artemisinin 0:5): 1.00 ± 0.12; artemisinin mean FIC ± SEM ([4]; ratio MMV1557817:artemisinin 1:4): 0.75 ± 0.07; artemisinin mean FIC ± SEM ([4]; ratio MMV1557817:artemisinin 2:3): 0.37 ± 0.06; artemisinin mean FIC ± SEM ([4]; ratio MMV1557817:artemisinin 3:2): 0.16 ± 0.03; artemisinin mean FIC ± SEM ([4]; ratio MMV1557817:artemisinin 4:1): 0.06 ± 0.01; change of susceptibility compared with parental Dd2 [5]: marginally but significantly sensitized

**Q.** How did the “99.9% PCT” value (Pf3D7; Pf3D7, 10× EC50) turn out when `CCN(CC)CCCC(C)Nc1ccnc2cc(Cl)ccc12` (stereo not drawn) [chloroquine] was run?
**A.** 53 h

**Q.** And the Lag phase (Pf3D7; Pf3D7, 10× EC50)?
**A.** 0 h

**Q.** What about the “Log (PRR)” value (Pf3D7; Pf3D7, 10× EC50, over one cycle) of the same compound?
**A.** 3.9 ± 0.2

**Q.** What about the IC50 [1] of the same compound?
**A.** 157 ± 3.5 nM

**Q.** What about the EC50 ([6]; Plasmodium falciparum, read-out: P. falciparum median EC50 (range), ex vivo clinical isolates, n = 15) of the same compound?
**A.** 65 nM

**Q.** And the EC50 ([6]; read-out: P. falciparum median EC50 (range), ex vivo clinical isolates, n = 15, listed as CQ)?
**A.** 64.8 nM

**Q.** And the EC50 ([7]; Plasmodium vivax, read-out: P. vivax median EC50 (range), ex vivo clinical isolates, n = 6)?
**A.** 36 nM

**Q.** And the EC50 ([7]; read-out: P. vivax median EC50 (range), ex vivo clinical isolates, n = 6, listed as CQ)?
**A.** 36.4 nM

**Q.** How did the EC50 [6, 8] turn out when `OC(c1cc(C(F)(F)F)nc2c(C(F)(F)F)cccc12)C1CCCCN1` (stereo not drawn) [mefloquine] was run?
**A.** 10 nM

**Q.** And the EC50 [7, 9]?
**A.** 11.2 nM

**Q.** What about the EC50 [7, 10] of the same compound?
**A.** 11 nM

**Q.** Which EC50 [6, 8] does the source give for `Clc1ccc2c(N3CCN(CCCN4CCN(c5ccnc6cc(Cl)ccc56)CC4)CC3)ccnc2c1` [piperaquine] here?
**A.** 60.8 nM

**Q.** And the EC50 ([6]; ex vivo clinical isolates, n = 15, read-out: P. falciparum median EC50 (range))?
**A.** 61 nM

**Q.** And the EC50 [7, 9]?
**A.** 46.6 nM

**Q.** What about the EC50 [7, 10] of the same compound?
**A.** 47 nM

**Q.** With `COc1ccc(C[C@H](N)C(=O)N[C@H]2[C@@H](O)[C@H](n3cnc4c(N(C)C)ncnc43)O[C@@H]2CO)cc1` [puromycin] as the compound, how does the IC50 ([1]; stages I–III) read?
**A.** 163 ± 18 nM

**Q.** What about the IC50 [2] of the same compound?
**A.** 94 ± 5 nM

**Q.** And the IC50 [3]?
**A.** 73 ± 24 nM

**Q.** Which results are given for `COc1ccc2nc3cc(Cl)ccc3c(Nc3cc(CN4CCCC4)c(O)c(CN4CCCC4)c3)c2n1` [pyronaridine]?
**A.** IC50 ([1]; stages I–III): 67 ± 7 nM; IC50 [2]: 2280 ± 679 nM; IC50 [3]: 1250 ± 120 nM

Source: paper PMC11237774, “On-target, dual aminopeptidase inhibition provides cross-species antimalarial activity” (mBio, 2024)
